According to PMC10745968 (Molecules, 2023):

Key:
Bacillus subtilis = assay type: cell-based
Staphylococcus aureus = assay type: cell-based
Bacillus cereus = assay type: cell-based
Escherichia coli = assay type: cell-based
Salmonella typhi = assay type: cell-based
Pseudomonas aeruginosa = assay type: cell-based
brine shrimp nauplii = details: in vivo
Aspergillus niger = assay type: cell-based; details: 5 days
Aspergillus flavus = assay type: cell-based; details: 5 days

SMILES | Diameter of Inhibition Zone (Bacillus subtilis) | Diameter of Inhibition Zone (Staphylococcus aureus) | Diameter of Inhibition Zone (Bacillus cereus) | Diameter of Inhibition Zone (Escherichia coli) | Diameter of Inhibition Zone (Salmonella typhi) | Diameter of Inhibition Zone (Pseudomonas aeruginosa) | death rate (brine shrimp) (brine shrimp nauplii) | % Inhibition of Fungal Mycelial Growth in mm (20 μg/μL) (Aspergillus niger) | % Inhibition of Fungal Mycelial Growth in mm (20 μg/μL) (Aspergillus flavus)
CC[C@H]1OC(=O)[C@H](C)[C@@H](O[C@H]2C[C@@](C)(OC)[C@@H](O)[C@H](C)O2)[C@H](C)[C@@H](O[C@@H]2O[C@H](C)C[C@H](N(C)C)[C@H]2O)[C@](C)(O)C[C@@H](C)CN(C)[C@H](C)[C@@H](O)[C@]1(C)O [Azithromycin, reference compound] | ** 18.5 ± 0.3 mm | ** 17.75 ± 0.3 mm | ** 17.22 ± 0.3 mm | ** 17.25 ± 0.1 mm | ** 18.0 ± 0.2 mm | ** 18.5 ± 0.3 mm | – | – | –
CO[C@H]1O[C@H](COC(=O)C=Cc2ccccc2)[C@@H](O)[C@H](O)[C@@H]1O [Compound 2, Methyl 6-O-cinnamoyl-α-D-mannopyranoside] | – | 11.75 ± 0.3 mm | 07.11 ± 0.5 mm | – | 12.41 ± 0.3 mm | – | 27.07% | – | –
CCCCCCC(=O)O[C@@H]1[C@H](OC(=O)CCCCCC)[C@@H](OC)O[C@H](COC(=O)C=Cc2ccccc2)[C@H]1OC(=O)CCCCCC [Compound 3, Methyl 2,3,4-tri-O-heptanoyl-6-O-cinnamoyl-α-D-mannopyranoside] | – | – | – | 10.25 ± 0.2 mm | – | – | – | – | –
CCCCCCCC(=O)O[C@@H]1[C@H](OC(=O)CCCCCCC)[C@@H](OC)O[C@H](COC(=O)C=Cc2ccccc2)[C@H]1OC(=O)CCCCCCC [Compound 4, Methyl 6-O-cinnamoyl-2,3,4-tri-O-octanoyl-α-D-mannopyranoside] | 10.51 ± 0.6 mm | – | – | 11.53 ± 0.2 mm | 10.23 ± 0.5 mm | 09.19 ± 0.6 mm | 36.10-37.03% | * 96.22 ± 1.1% | * 98.47 ± 1.0%
CO[C@H]1O[C@H](COC(=O)/C=C/c2ccccc2)[C@@H](OS(=O)(=O)c2ccc(C)cc2)[C@H](OS(=O)(=O)c2ccc(C)cc2)[C@@H]1OS(=O)(=O)c1ccc(C)cc1 [Compound 5, Methyl 2,3,4-tri-O-p-toluenesulfonyl-6-O-cinnamoyl-α-D-mannopyranoside] | 12.15 ± 0.7 mm | – | 08.10 ± 0.3 mm | 9.00 ± 0.2 mm | – | 12.36 ± 0.2 mm | – | 57.62 ± 1.1% | * 81.30 ± 1.0%
CO[C@H]1O[C@H](COC(=O)C=Cc2ccccc2)[C@@H](OS(=O)(=O)c2ccccc2)[C@H](OS(=O)(=O)c2ccccc2)[C@@H]1OS(=O)(=O)c1ccccc1 [Compound 6, Methyl 6-O-cinnamoyl-2,3,4-tri-O-benzenesulfonyl-α-D-mannopyranoside] | 10.13 ± 0.8 mm | – | – | 9.00 ± 0.3 mm | 9.17 ± 0.1 mm | 8.50 ± 0.2 mm | 36.10-37.03% | – | –
C[C@@H]1[C@H](O)[C@@H](C)/C=C/C=C/CC/C=C/C=C/C=C/C=C/C(O[C@H]2O[C@H](C)[C@@H](O)[C@H](N)[C@@H]2O)CC2O[C@](O)(CC(O)C(O)CCC(O)CC(O)CC(O)CC(=O)O[C@H]1C)CC(O)C2C(=O)O (stereo partly shown) [Nystatin, nystatin, reference compound] | – | – | – | – | – | – | – | ** 65.4 ± 1.0% | ** 64.1 ± 1.0%
